Data set [1] is described as follows: Saturation solubility in 50 wt % aqueous ethanol. The note with it: organic solvent or mixture, 50 wt % of aqueous ethanol. In kind it is physicochemical.
Data set [2] is described as follows: In vitro release / dissolution of methylprednisolone acetate in 50 wt % aqueous ethanol at 37° C. The data set is classed as physicochemical. The note with it: unencapsulated.
Procedure: The in vitro release of methylprednisolone acetate from microparticles into a receiving fluid comprising 50 wt % of aqueous ethanol maintained at 37° C. was measured.
Triplicate samples of 20 mg of microparticles were weighed and each sample was placed in an 8-oz bottle containing 150 mL of 50 wt % aqueous ethanol. […] Next, the bottles were sealed with a thin sheet of Teflon and a screw cap to prevent evaporation. The bottles were then placed in an Eberbach shaker bath oscillating at 120 cycles/min and maintained at 37° C. The amount of drug released from the microparticles as a function of time was measured by determining the absorbance of the aqueous ethanol receiving fluid at 247 nm and by using the following equation based on Beer's Law.
methylprednisolone acetate in g/ml.

The structures appear in SMILES notation.

Regarding `CC(=O)OCC(=O)[C@@]1(O)CC[C@H]2[C@@H]3C[C@H](C)C4=CC(=O)C=C[C@]4(C)[C@H]3[C@@H](O)C[C@@]21C` [Methylprednisolone acetate, 6α-methylprednisolone acetate], the solubility (as a rule, the concentration that dissolves in the medium under given conditions) in data set [1] was more than 3000 µg/mL. The compound further showed a dissolution complete in data set [2] of 30 min.

The values are drawn from US4530840A, “Injectable, long-acting microparticle formulation for the delivery of anti-inflammatory agents” (priority 1982, dated 1985).
